The results in this text go back to patent US12344614B2, “Benzodiazepine derivatives as GABA a GAMMA1 PAM” (Hoffmann-La Roche Inc., priority 2021, dated 2025).

Molecules are shown by their SMILES. Like-named read-outs stand apart in the source and are kept apart here.

In assay [1] the target is human GABAA α1β3γ2 receptor (Homo sapiens (Human), UniProt P14867+P18507). In words: Radioligand binding assay, competition for [3H]Flumazenil, HEK293F cells. To be noted: for γ2/γ1 Selectivity Ratio: Ki α1β3γ2 (nM)/Ki α2β2γ1 (nM); for LogSel: Log[Ki α1β3γ2 (nM)/Ki α2β2γ1 (nM)]. As to the method: The affinity of compounds at GABAA γ2 subunit-containing receptors was measured by competition for [^3H]Flumazenil (81.1 Ci/mmol; Roche) binding to HEK293F cells expressing human (transiently transfected) receptors of composition α1β3γ2.
Harvested pellets from HEK293F cells expressing the different GABAA γ2 receptor subtypes were resuspended in Mannitol Buffer pH 7.2-7.4 and processed as described above for the cells expressing the GABAA γ1 subunit-containing receptors.
Assays were incubated to equilibrium for 1 hour at 4° C. and harvested onto GF/C uni-filters (Packard) by filtration using a Packard harvester and washing with ice-cold wash buffer (50 mM Tris; pH 7.5). After anhydrousing, filter-retained radioactivity was detected by liquid scintillation counting. Ki values were calculated using Excel-Fit (Microsoft) and are the means of two determinations.

Assay [2] concerns the target human GABAA α5β2γ1 receptor (Homo sapiens (Human), UniProt P31644+Q8N1C3). Description: Radioligand binding assay, competition for [3H]RO7239181, membranes from HEK293F cells. As to the method: The affinity of compounds at GABAA γ1 subunit-containing receptors was measured by competition for [^3H]RO7239181 (67.3 Ci/mmol; Roche) binding to membranes from HEK293F cells (ThermoFisher R79007) expressing human (transiently transfected) receptors of composition α5β2γ1, α2β2γ1, α1β2γ1. For better protein expression of the α2 subunit-containing receptors, the 28 amino acid long signal peptide (Met1 to Ala28) of the human GABAA α2 subunit was substituted by the 31 amino acid long signal peptide (Met1 to Ser31) of human GABAA α5 subunit.
(§1) Harvested pellets from HEK293F cells expressing the different GABAA receptor subtypes were resuspended in Mannitol Buffer pH 7.2-7.4 (Mannitol 0.29M, Triethylamine 10 mM, Acetic acid 10 mM, EDTA 1 mM plus protease inhibitors (20 tablets Complete, Roche Diagnostics Cat. No. 05 056 489 001 per liter)), washed two times and then resuspended at 1:10 to 1:15 dilution in the same buffer. Cell disruption was performed by stirring the suspension in a Parr vessel #4637 at 435 psi for 15 minutes, and then the suspensions were centrifuged at 1000×g for 15 minutes at 4° C. (Beckman Avanti J-HC; rotor JS-4.2). The supernatant (S1) was transferred in a 21 Schott flask and the pellet (P1) was resuspended with Mannitol Buffer up to 175 ml. The resuspended pellet was transferred into a 250 ml Corning centrifugal beaker and centrifuged at 1500×g for 10 minutes at 4° C. (Beckman Avanti J-HC; rotor JS-4.2). The supernatant (S1) was then transferred in the 21 Schott flask and the pellet was discarded. The supernatants (S1) were centrifuged in 500 ml Beckman polypropylene centrifugal beaker at 15′000×g for 30 minutes at 4° C. (Beckman Avanti J-20 XP; rotor JLA-10.500). The pellet (P2) was resuspended with Mannitol Buffer 1:1 and frozen at −80° C. The supernatant (S2) was centrifuged in 100 ml Beckman polypropylene centrifugal tubes at 48000×g for 50 minutes at 4° C. (Beckman Avanti J-20 XP; rotor JA-18). The supernatant (S3) was discarded and the pellet (P3) was resuspended with 1:1 Mannitol Buffer. The P2 and P3 protein concentration was determined with the BIORAD Standard assay method with bovine serum albumin as standard and measured on the NANO-Drop 1000. The membrane suspension was aliquots (500 μl per tube) and stored at −80° C. until required.
(§2) Membrane homogenates were resuspended and polytronised (Polytron PT1200E Kinematica AG) in Potassium Phosphate 10 mM, KCl 100 mM binding buffer at pH 7.4 to a final assay concentration determined with a previous experiment.
Radioligand binding assays were carried out in a volume of 200 μL (96-well plates) which contained 100 μL of cell membranes, [^3H]RO7239181 at a concentration of 1.5 nM (α5β2γ1) or 20-30 nM (α1β2γ1, α2β2γ1) and the test compound in the range of [0.3-10000]×10^−9 M. Nonspecific binding was defined by 10×10^−6 (α5β2γ1) and 30×10^−6 M RO7239181 and typically represented less than 5% (α5β2γ1) and less than 20% (α1β2γ1, α2β2γ1) of the total binding. Assays were incubated to equilibrium for 1 hour at 4° C. and then, membranes were filtered onto unifilter (96-well white microplate with bonded GF/C filters preincubated 20-50 minutes in 0.3% Polyethylenimine) with a Filtermate 196 harvester (Packard BioScience) and washed 4 times with cold Potassium Phosphate 10 mM pH 7.4, KCl 100 mM binding buffer. After anhydrousing, filter-retained radioactivity was detected by liquid scintillation counting. Ki values were calculated using Excel-Fit (Microsoft) and are the means of two determinations.
Representative test results, obtained by the above described assay measuring binding affinity to HEK293 cells expressing human (h) receptors, are shown in the Table 1.

For assay [3], the target named is human GABAA α2β2γ1 receptor (Homo sapiens (Human), UniProt P47869+Q8N1C3). The assay is described as above. How it is done:
The affinity of compounds at GABAA γ1 subunit-containing receptors was measured by competition for [^3H]RO7239181 (67.3 Ci/mmol; Roche) binding to membranes from HEK293F cells (ThermoFisher R79007) expressing human (transiently transfected) receptors of composition α5β2γ1, α2β2γ1, α1β2γ1.
as §1, §2
Assays were incubated to equilibrium for 1 hour at 4° C. and then, membranes were filtered onto unifilter (96-well white microplate with bonded GF/C filters preincubated 20-50 minutes in 0.3% Polyethylenimine) with a Filtermate 196 harvester (Packard BioScience) and washed 4 times with cold Potassium Phosphate 10 mM pH 7.4, KCl 100 mM binding buffer. After anhydrousing, filter-retained radioactivity was detected by liquid scintillation counting. Ki values were calculated using Excel-Fit (Microsoft) and are the means of two determinations.

In assay [4] the target is h-GABA-A α2β2γ1 receptor (Homo sapiens (Human), UniProt P47869+Q8N1C3). Description: Two-electrode voltage clamp electrophysiology in Xenopus oocytes expressing GABAA receptors. The assay is classed as cell-based. To be noted: α2β2γ1 GABAA receptor subtype expressing oocytes, GABA EC20, reference PAMs. How it is done:
Xenopus laevis oocytes at maturation stages V-VI were used for the expression of cloned mRNA encoding GABAA receptor subunits. Oocytes ready for RNA micro-injection were bought from Ecocyte, Castrop-Rauxel, Germany and stored in modified Barth's medium (composition in mM: NaCl 88, KCl 1, NaHCO3 2.4, HEPES 10, MgSO4 0.82, CaNO3 0.33, CaCl2 0.33, pH=7.5) at 20° C. until the experiment.
Oocytes were plated in 96-well plates for microinjection using the Roboinject automated instrument (MultiChannelSystems, Reutlingen, Germany). Approximately 50 nL of an aqueous solution containing the RNA transcripts for the subunits of the desired GABAA receptor subtype was injected into each oocyte. […] Oocytes were kept in modified Barth's medium (composition in mM: NaCl 88, KCl 1, NaHCO3 4, HEPES 10, MgSO4 0.82, CaNO3 0.33, CaCl, 0.33, pH=7.5) at 20° C. until the experiment.
Electrophysiological experiments were performed using the Roboocyte instrument (MultiChannelSystems, Reutlingen, Germany) on days 3 to 5 after the micro-injection of mRNA. During the experiment the oocytes were constantly superfused by a solution containing (in mM) NaCl 90, KCl 1, HEPES 5, MgCl2 1, CaCl2 1 (pH 7.4). Oocytes were impaled by two glass microelectrodes (resistance: 0.5-0.8 MΩ) which were filled with a solution containing KCl 1M+K-acetate 1.5 M and voltage-clamped to −80 mV. The recordings were performed at room temperature using the Roboocyte two-electrode voltage clamp system (Multichannelsystem). After an initial equilibration period of 1.5 min GABA was added for 1.5 min at a concentration evoking approximately 20% of a maximal current response (EC2O). After another rest interval of 2.5 min GABA was again added evoking a response of similar amplitude and shape. […] Current traces were recorded at a digitization rate of 10 Hz during and shortly before and after the GABA application.
Each compound and concentration was tested on at least 3 oocytes. Different oocytes were used for different compound concentrations.
For the analysis, the digitized current traces of the first and second GABA response were superimposed and, if necessary, rescaled to equal maximal amplitudes. The ratio between the two responses during the time interval of test compound application was calculated point by point. The extremum of the resulting “ratio trace” was taken as the efficacy (“Fold increase”) of the compound expressed as “% modulation of GABA EC20” (100*(Fold increase−1)).
On the technique in general: Two-electrode voltage clamp holds a large cell at a set potential and records current.

Setting [5] is: read-out: Ki h-GABAA α2β2γ1, [3H]RO7239181 20-30 nM, HEK293F membranes, 1 hour at 4° C., mean of two determinations.

The term Ki denotes the equilibrium dissociation constant of an inhibitor or competing ligand from its target.

As for `Cc1cn2c(n1)[C@H](C)N=C(c1nc(O)ccc1Cl)c1c-2ccc(C(F)(F)F)c1Cl` [Example 27, 5-chloro-6-[(4S)-7-chloro-2,4-dimethyl-8-(trifluoromethyl)-4H-imidazo[1,2-a][1,4]benzodiazepin-6-yl]pyridin-2-ol], the Ki in assay [1] was determined as 3550 nM; in assay [2] it was 2.8 nM; in assay [3], 5.22 nM; in assay [3] (setting [5]), 5.22 nM. The “γ2/γ1 Selectivity Ratio” value in assay [1] is 679.2. In addition, the LogSel in assay [1] is 2.83.

`CN1C(=O)CN=C(c2cc(O)ccc2F)c2cc(Cl)ccc21` [RE-B, 7-chloro-5-(2-fluoro-5-hydroxy-phenyl)-1-methyl-3H-1,4-benzodiazepin-2-one, reference compound]: in assay [1], the Ki was found to be 1.1 nM, the “γ2/γ1 Selectivity Ratio” value was 0.58 and the LogSel was −0.24. In assay [3], this molecule gave a Ki of 1.9 nM.

Consider `CC(C)NC(=O)c1cn2c(n1)[C@H](C)N=C(c1nc(O)ccc1F)c1c-2ccc(C(F)(F)F)c1Cl` [Example 32, (4S)-7-chloro-6-(3-fluoro-6-hydroxy-2-pyridyl)-N-isopropyl-4-methyl-8-(trifluoromethyl)-4H-imidazo[1,2-a][1,4]benzodiazepine-2-carboxamide], for which the Ki in assay [1] was determined as 8600 nM; in assay [2], 4.7 nM; in assay [3] it was 10.8 nM; in assay [3] (setting [5]), 10.8 nM. The “γ2/γ1 Selectivity Ratio” value in assay [1] is reported as 796.0. Also, in assay [1], the LogSel worked out at 2.90.

`CN1C(=O)CN=C(c2cc(O)ccc2Cl)c2cc(Cl)ccc21` [RE-A, 7-chloro-5-(2-chloro-5-hydroxy-phenyl)-1-methyl-3H-1,4-benzodiazepin-2-one, reference compound] came in with a LogSel in assay [1] of −0.27. Besides, the Ki in assay [3] ([3H]RO7239181 20-30 nM, HEK293F membranes, 1 hour at 4° C., mean of two determinations, read-out: Ki h-GABAA α2β2γ1) is 2.8 nM.

As to `Cc1ncc2n1-c1ccc(Cl)cc1C(c1ccccc1F)=NC2` [Midazolam, reference compound], the “potentiation of the GABA-induced current” value in assay [4] is about 60%. Moreover, in assay [1], the LogSel was −2.2.

Regarding `Cc1nnc2n1-c1ccc(Cl)cc1C(c1ccccc1Cl)=NC2` [Triazolam, reference compound], in assay [4], the “potentiation of the GABA-induced current” value is about 60%. Moreover, the LogSel in assay [1] was −1.5.

Take `Cc1nnc2n1-c1ccc(Cl)cc1C(c1ccccc1)=NC2` [Alprazolam, reference compound]: the LogSel in assay [1] is given as −2.3.

Take `C[C@@H]1N=C(c2nc(O)ccc2F)c2c(ccc(C(F)(F)F)c2Cl)-n2cc(C(=O)NC3CC3)nc21` [Example 31, (4S)-7-chloro-N-cyclopropyl-6-(3-fluoro-6-hydroxy-2-pyridyl)-4-methyl-8-(trifluoromethyl)-4H-imidazo[1,2-a][1,4]benzodiazepine-2-carboxamide]: the Ki was found to be 12500 nM in assay [1], 4.4 nM in assay [2], 15.6 nM in assay [3] and 15.6 nM in assay [3] (setting [5]). In assay [1], the “γ2/γ1 Selectivity Ratio” value amounted to 800.9. Moreover, the LogSel in assay [1] is reported as 2.90.

For `CN1C(=O)CN=C(c2ccccc2F)c2cc([N+](=O)[O-])ccc21` [Flunitrazepam, reference compound], the “potentiation of the GABA-induced current” value in assay [4] is about 60%.

For the molecule `Cc1nnc2n1-c1ccc(Cl)c(Cl)c1C(c1c(F)ccc(O)c1F)=N[C@H]2C` [Example 19, 2,4-difluoro-3-[(4S)-7,8-dichloro-1,4-dimethyl-4H-[1,2,4]triazolo[4,3-a][1,4]benzodiazepin-6-yl]phenol], the Ki came out at 33 nM in assay [1], 2.12 nM in assay [2], 3.12 nM in assay [3] and 3.12 nM in assay [3] (setting [5]). Besides, the “γ2/γ1 Selectivity Ratio” value in assay [1] was 10.6. This molecule gave a LogSel in assay [1] of 1.02.

Take `Clc1ccc2c(c1)C(c1ccccc1)=NCc1nncn1-2` [Estazolam, reference compound]: the LogSel in assay [1] is recorded as −2.0.
